Measured values from patent US4803209A, “Substituted 2,3-diphenyl-1,2-dihydroquinoxalines” (International Minerals & Chemical Corp., priority 1987, dated 1989).
Read-outs that look alike come from different tables or passages of the source. Where a SMILES comes first, the peptide text is derived from it. Bridges are numbered along the chain shown (N, C = ends). [ ]: non-standard residue; d: D form. The star is where a group is joined. Ileψ(thiazoline)Cys = CC[C@H](C)[C@H](N)C1=N[C@H](C(=O)*)CS1; dOrn = NCCC[C@@H](N)C(=O)O

How the values were obtained:
Salmonella typhimurium = assay type: cell-based
[1] = test system: antibiotic resistant E. coli (E.C. 324); assay type: cell-based; settings: Gram Neg., 6 h, 37° C., aerobic
[2] = test system: E. coli strain 046 (E.C. 046); assay type: cell-based
[3] = test system: Streptococcus sp. 1 X C15 (Strep C15); assay type: cell-based
[4] = test system: Streptococcus sp. 1 X A7 (Strep A7); assay type: cell-based
[5] = test system: Clostridium perfringens (Cp); assay type: cell-based; settings: Anaerobic, 6 h, 37° C.
[6] = test system: Bacteroides fragilis (Bf); assay: Antimicrobial growth inhibition, Bf; assay type: cell-based; settings: Anaerobic, 6 h, 37° C.
[7] = Growth promotion and feed utilization in chicks; assay type: in vivo, chicks (broiler cockerels); settings: 8 weeks
[8] = test system: Eimeria tenella Eli Lilly Strain 65 (Lilly 65); assay: In vitro anticoccidial test in chick kidney cell monolayers; assay type: cell-based; settings: 72 h, 3 days, read-out: % Inhibition of Coccidia
[9] = experiment set 1, 75 ppm in feed
[10] = experiment set 2, 50 ppm in feed
[11] = experiment set 4, 50 ppm in feed
[12] = experiment set 3, 50 ppm in feed
[13] = experiment set 5, 50 ppm in feed

Row | Compound | Growth of S.T. in the presence of the test compound (Salmonella typhimurium; 6.4 ppm) | Growth of S.T. in the presence of the test compound (Salmonella typhimurium; 64 ppm) | Growth of E.C. 324 in the presence of the test compound ([1]; 6.4 ppm) | Growth of E.C. 324 in the presence of the test compound ([1]; 64 ppm) | Growth of E.C. 046 in the presence of the test compound ([2]; 6.4 ppm) | Growth of E.C. 046 in the presence of the test compound ([2]; 64 ppm) | Growth of Strep C15 in the presence of the test compound ([3]; 6.4 ppm) | Growth of Strep C15 in the presence of the test compound ([3]; 64 ppm) | Growth of Strep A7 in the presence of the test compound ([4]; 6.4 ppm) | Growth of Strep A7 in the presence of the test compound ([4]; 64 ppm) | Growth of Cp in the presence of the test compound ([5]; 6.4 ppm) | Growth of Cp in the presence of the test compound ([5]; 64 ppm) | Growth of Bf in the presence of the test compound ([6]; 6.4 ppm) | Growth of Bf in the presence of the test compound ([6]; 64 ppm) | further results
1 | CC[C@H](C)[C@H](N)C1=N[C@H](C(=O)N[C@@H](CC(C)C)C(=O)N[C@H](CCC(=O)O)C(=O)N[C@H](C(=O)N[C@H]2CCCCNC(=O)[C@H](CC(N)=O)NC(=O)[C@@H](CC(=O)O)NC(=O)[C@H](Cc3cnc[nH]3)NC(=O)[C@@H](Cc3ccccc3)NC(=O)[C@H]([C@@H](C)CC)NC(=O)[C@@H](CCCN)NC2=O)[C@@H](C)CC)CS1 [Bacitracin] ({Ileψ(thiazoline)Cys}-L[dE]IK[dOrn]I[dF]H[dD]N; lactam 4-C) | + | + | + | + | + | + | - | - | - | - | + | - | - | - | feed efficiency (% better or worse than control) [7, 9]: 19%; weight gain (% better or worse than control) [7, 9]: 25%; feed efficiency (% better or worse than control) [7, 10]: 32%; weight gain (% better or worse than control) [7, 10]: 40%
2 | CN(C)[C@@H]1C(O)=C(C(N)=O)C(=O)[C@@]2(O)C(O)=C3C(=O)c4c(O)ccc(Cl)c4[C@@](C)(O)[C@H]3C[C@@H]12 [Chlortetracycline] | - | - | + | - | + | - | - | - | - | - | + | + | + | - | 
3 | CC[C@H]1OC(=O)[C@H](C)[C@@H](O[C@H]2C[C@@](C)(OC)[C@@H](O)[C@H](C)O2)[C@H](C)[C@@H](O[C@@H]2O[C@H](C)C[C@H](N(C)C)[C@H]2O)[C@](C)(O)C[C@@H](C)C(=O)[C@H](C)[C@@H](O)[C@]1(C)O [Erythromycin] | + | - | + | + | + | - | - | - | - | - | + | + | + | - | 
4 | Clc1ccc(C2=Nc3cc(Cl)c(Cl)cc3NC2c2ccc(Cl)cc2Cl)c(Cl)c1 (centres unmarked) [Example 3, 2,3-di(2,4-dichlorophenyl)-6,7-dichloro-1,2-dihydroquinoxaline] |  |  |  |  |  |  |  |  |  |  |  |  |  |  | inhibition at 0.1 ppm [8]: 88.6%; inhibition at 10 ppm [8]: 98%
5 | Clc1ccc(C2=Nc3ccccc3NC2c2ccc(Cl)cc2Cl)c(Cl)c1 (centres unmarked) [Example 6, 2,3-di(2,4-dichlorophenyl)-1,2-dihydroquinoxaline] |  |  |  |  |  |  |  |  |  |  |  |  |  |  | inhibition at 0.1 ppm [8]: 60%; inhibition at 10 ppm [8]: 100%
6 | NC[C@H]1O[C@H](O[C@H]2[C@H](O)[C@@H](O[C@H]3O[C@H](CO)[C@@H](O)[C@H](N)[C@H]3O)[C@H](N)C[C@@H]2N)[C@H](O)[C@@H](O)[C@@H]1O [Kanamycin] | + | - | + | - | + | + | - | - | - | - | + | + | - | - | feed efficiency (% better or worse than control) [7, 11]: 19%; weight gain (% better or worse than control) [7, 11]: 14%
7 | CCC[C@@H]1C[C@@H](C(=O)N[C@@H]([C@H]2O[C@H](SC)[C@H](O)[C@@H](O)[C@H]2O)[C@@H](C)O)N(C)C1 [Lincomycin] | + | + | + | + | + | + | - | - | - | - | + | + | - | - | feed efficiency (% better or worse than control) [7, 9]: 12%; weight gain (% better or worse than control) [7, 9]: 20%
8 | CC1(C)S[C@@H]2[C@H](NC(=O)Cc3ccccc3)C(=O)N2[C@H]1C(=O)O [Penicillin] | + | - | + | - | + | - | - | - | - | - | + | + | + | - | feed efficiency (% better or worse than control) [7, 9]: 5.5%; weight gain (% better or worse than control) [7, 9]: 20%; feed efficiency (% better or worse than control) [7, 10]: 32%; weight gain (% better or worse than control) [7, 10]: 40%; feed efficiency (% better or worse than control) [7, 12]: 13%; weight gain (% better or worse than control) [7, 12]: 35%; feed efficiency (% better or worse than control) [7, 11]: 11%; weight gain (% better or worse than control) [7, 11]: 19%; feed efficiency (% better or worse than control) [7, 13]: 21%; weight gain (% better or worse than control) [7, 13]: 50%
9 | CC[C@H]1OC(=O)C[C@@H](O)[C@H](C)[C@@H](O[C@@H]2O[C@H](C)[C@@H](O[C@H]3C[C@@](C)(O)[C@@H](O)[C@H](C)O3)[C@H](N(C)C)[C@H]2O)[C@@H](CC=O)C[C@@H](C)C(=O)/C=C/C(C)=C/[C@@H]1CO[C@@H]1O[C@H](C)[C@@H](O)[C@@H](OC)[C@H]1OC [Tylosin] | + | + | + | + | + | + | - | - | - | - | + | - | - | - | 
10 | Gentamicin | - | - | + | - | + | - | - | - | - | - | + | + | - | - | feed efficiency (% better or worse than control) [7, 12]: 15%; weight gain (% better or worse than control) [7, 12]: 32%
11 | Polymyxin | - | - | - | - | - | - | - | - | + | - | + | + | + | - | feed efficiency (% better or worse than control) [7, 11]: 6%; weight gain (% better or worse than control) [7, 11]: -3%
